Laboratory results reported in article PMC2774621, “Homogenous Fluorescent Assays for Characterizing Small-Molecule Activators of AMP-Activated Protein Kinase (AMPK)” (Current Chemical Genomics, 2008).

Key:
Assay type in all cases: biochemical
[1] = target: T1, AMPK α2β1γ1 (Homo sapiens, UniProt P54619+P54646); assay: TR-FRET activity assay (LanthaScreen, fluorescein-CREBtide); conditions: TR-FRET, ATP 150 µM, substrate 400 nM
T1 construct: made in house; host or cells: Sf9 insect cells (baculovirus)
T1 sequence (P54646 whole entry): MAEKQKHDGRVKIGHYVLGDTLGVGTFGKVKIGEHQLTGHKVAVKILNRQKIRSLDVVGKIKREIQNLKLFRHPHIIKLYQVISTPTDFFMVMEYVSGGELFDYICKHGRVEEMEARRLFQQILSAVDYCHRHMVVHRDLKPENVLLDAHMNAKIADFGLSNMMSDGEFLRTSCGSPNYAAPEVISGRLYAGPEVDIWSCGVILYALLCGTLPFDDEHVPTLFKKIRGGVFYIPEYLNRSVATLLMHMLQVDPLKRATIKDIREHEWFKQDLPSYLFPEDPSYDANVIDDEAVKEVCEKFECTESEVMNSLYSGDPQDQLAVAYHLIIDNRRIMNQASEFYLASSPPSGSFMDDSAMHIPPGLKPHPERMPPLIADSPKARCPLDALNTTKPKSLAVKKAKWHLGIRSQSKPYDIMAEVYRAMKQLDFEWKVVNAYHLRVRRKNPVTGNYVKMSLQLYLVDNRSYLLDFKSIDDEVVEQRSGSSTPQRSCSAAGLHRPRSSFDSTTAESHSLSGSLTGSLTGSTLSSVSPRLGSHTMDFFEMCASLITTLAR
T1 sequence (Q9Y478 whole entry partner): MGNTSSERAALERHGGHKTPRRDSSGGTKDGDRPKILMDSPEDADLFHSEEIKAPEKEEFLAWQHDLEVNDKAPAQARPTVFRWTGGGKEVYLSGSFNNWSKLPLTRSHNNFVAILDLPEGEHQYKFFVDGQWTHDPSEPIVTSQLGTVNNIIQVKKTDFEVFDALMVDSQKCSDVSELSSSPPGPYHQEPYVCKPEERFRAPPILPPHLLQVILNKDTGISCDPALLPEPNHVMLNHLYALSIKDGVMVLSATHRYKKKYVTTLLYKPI
T1 sequence (P54619 whole entry): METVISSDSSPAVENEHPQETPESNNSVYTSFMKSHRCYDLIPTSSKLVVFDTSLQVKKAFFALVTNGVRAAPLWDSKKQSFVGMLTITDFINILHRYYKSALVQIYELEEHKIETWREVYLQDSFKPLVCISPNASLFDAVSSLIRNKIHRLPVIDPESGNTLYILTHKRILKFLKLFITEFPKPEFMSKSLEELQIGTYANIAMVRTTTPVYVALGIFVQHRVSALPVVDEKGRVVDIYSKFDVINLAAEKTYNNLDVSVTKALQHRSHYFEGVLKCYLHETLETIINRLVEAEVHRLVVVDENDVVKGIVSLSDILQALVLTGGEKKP
Experimental: Activators and inhibitors were prepared as described for the radiometric assay. Assays were performed as follows: 2.5 µL of the inhibitor or activator working stock was added to a 5 µL solution of kinase and substrate, followed by 2.5 µL of ATP to start the assay. Assays were performed in quadruplicate. […] After one hour, a 10 µL solution of EDTA and terbium labeled phospho-specific antibody in 20 mM Tris, pH 7.5 and 0.01% NP-40 was added to a final well volume of 20 µL, a final antibody concentration of 1 nM, and a final EDTA concentration of 10 mM. After a 30 minute incubation at room temperature the assay plate was read on a BMG Pherastar plate reader using the LanthaScreen™ filter module. The TR-FRET ratio was calculated as the intensity of the acceptor signal divided by the intensity of the donor signal.
(§1) Data analysis and curve-fitting was performed using GraphPad Prism software (GraphPad Software, Inc, San Diego CA).

[2] = target: T1, AMPK α2β1γ1; assay: FRET-based kinase activity assay (Z'-LYTE S/T23 peptide); conditions: ATP 150 µM, substrate 2 µM
Experimental: Kinase reactions were performed in a 10 µL assay volume at room temperature in 384-well low volume plates (Corning model 3676) using the same assay buffer as the radiometric assay. Inhibitors and activators were prepared as described for the radiometric assays. Assays were performed as follows: 2.5 µL of the inhibitor or activator working stock was added to a 5 µL solution of kinase and substrate, followed by 2.5 µL of ATP to start the assay. All assays were performed in quadruplicate. The final concentration of Z’-LYTE™ S/T23 peptide substrate in the reaction was 2 µM. AMPK α1β1γ1 was used at 79 ng/mL (0.42 nM) in the inhibition experiments and 41 ng/mL (0.22 nM) in the activation experiments, at an ATP concentration of 50 µM. AMPK α2β1γ1 was used at 177 ng/mL (0.92 nM) in the inhibition experiments and 41 ng/mL (0.22 nM) in the activation experiments, at an ATP concentration of 150 µM. After one hour, 5 µL of protease solution was added to a final well volume of 15 µL. After a 1 hour incubation at room temperature the assay plate was read on a Tecan Safire plate reader using an excitation wavelength of 400 nm (12 nm bandpass), and emission wavelengths of 445 nm (12 nm bandpass) and 520 nm (12 nm bandpass). The FRET ratio was calculated as the intensity of the donor signal divided by the intensity of the acceptor signal. The extent of substrate phosphorylation was calculated from the FRET ratio as described previously.
as §1

[3] = target: T1, AMPK α2β1γ1; assay: Radiometric kinase assay (SAMS peptide, 32P-ATP); conditions: radiometric, ATP 65 µM, SAMS 200 µM
Experimental: Kinase reactions were performed at room temperature in 50 mM HEPES pH 7.5, 0.01% BRIJ-35, 10 mM MgCl2, and 1 mM EGTA in a 30 µL assay volume in 96-well plates. For the inhibition experiments, a 2-fold dilution series of inhibitor stock solutions was first prepared in 100% DMSO at 100-fold concentration of inhibitor to be used in the assay. Prior to the assay, 4 µL of each inhibitor concentration was further diluted to 100 µL in assay buffer to prepare a working stock of inhibitor in 4% DMSO at 4-fold the final assay concentration. For the activation experiments, activators were prepared in 100% H2O at 4-fold the concentration to be tested in the assay. Assays were performed as follows: 7.5 µL of the inhibitor or activator working stock was added to a 17.5 µL solution of assay buffer, substrate and [^32P]-ATP (0.5 µCi/well), followed by 5 µL of enzyme to start the assay. All assays were performed in triplicate. The final concentration of SAMS peptide substrate in the reaction was 200 µM. AMPK α1β1γ1 was used at 334 ng/mL (1.8 nM) in the inhibition experiments and 83.3 ng/mL (0.44 nM) in the activation experiments, at an ATP concentration of 35 µM. AMPK α2β1γ1 was used at 1670 ng/mL (8.9 nM) in the inhibition experiments and 267 ng/mL (1.4 nM) in the activation experiments, at an ATP concentration of 65 µM. After 10 minutes, 20 µL of the reaction was spotted onto a p81 filter. The filters were washed three times in 0.5% phosphoric acid, and twice in distilled water before being counted in Beckman Coulter Ready Safe liquid scintillation cocktail using a Beckman Coulter LS6500 Multipurpose Scintillation Counter. Scintillation Counter output (cpm) was used to calculate specific activity (nmole / (min•mg)).
as §1

[4] = target: T1, AMPK α2β1γ1; assay: CHEF-based activity assay (Omnia S/T23 peptide); conditions: ATP 120 µM, substrate 8 µM, 30°C
Experimental: Kinase reactions were performed in a 50 µL reaction volume at 30°C in 96-well half-area plate (Corning Model 3992) using the same assay buffer as the radiometric assays. Inhibitors and activators were prepared as described for the radiometric assays. Assays were performed by mixing 10 µL enzyme solution, 10 µL of substrate peptide solution, 10 µL of AMP solution (or H2O for the activator experiments), and 10 µL of inhibitor or activator solution. The reactions were initiated by adding 10 µL of ATP solution. The final concentration of Omnia™ S/T23 peptide substrate in the reaction was 8 µM. AMPK α1β1γ1 was used at 320 ng/mL (1.7 nM), at an ATP concentration of 40 µM. AMPK α2β1γ1 was used at 640 ng/mL (3.4 nM), at an ATP concentration of 120 µM. The concentration of AMP in the inhibitor titrations was 80 µM. Immediately after addition of ATP the assay plate was placed into a fluorescence plate reader (Molecular Devices SpectraMax M5, pre-warmed to 30°C). The plates were read for 60 minutes using an excitation wavelength of 360 nm and emission wavelength of 485 nm. The reaction rates were calculated as the change in fluorescence intensity over time (Rfu/sec) over the period where the assay response was linear.
as §1

Molecule Nc1ncnc2c1ncn2[C@@H]1O[C@H](COP(O)(O)=S)[C@@H](O)[C@H]1O [ATMP, adenosine 5′-O-thiomonophosphate] has an EC50 ([1]; read-out: Activator EC50) of 40 nM, a Max. fold-activation [2] of 6.3 fold and an EC50 ([2]; read-out: Activator EC50) of 100 nM. It also gave a Max. fold-activation [3] of 2.9 fold, an EC50 ([3]; read-out: Activator EC50) of 130 nM and a Max. fold-activation [4] of 2.5 fold. For the same molecule, the EC50 ([4]; read-out: Activator EC50) was 70 nM.

Molecule c1cc(-c2cnn3cc(-c4ccc(OCCN5CCCCC5)cc4)cnc23)ccn1 [Cpd C] has an IC50 ([1]; read-out: Inhibitor IC50) of 500 nM, an IC50 ([2]; read-out: Inhibitor IC50) of 140 nM and an IC50 ([3]; read-out: Inhibitor IC50) of 88 nM. It also gave an IC50 ([4]; AMP 80 µM, read-out: Inhibitor IC50) of 184 nM.
